Where a SMILES comes first, the peptide text is derived from it. Bridges are numbered along the chain shown (N, C = ends). [ ]: non-standard residue; d: D form. The star is where a group is joined. ξ: configuration not given here. Phe(3-CF3) = N[C@@H](Cc1cccc(C(F)(F)F)c1)C(=O)O; Phe(4-COOH) = N[C@@H](Cc1ccc(C(=O)O)cc1)C(=O)O; Bip = N[C@@H](Cc1ccc(-c2ccccc2)cc1)C(=O)O; Phe(3-Me) = Cc1cccc(C[C@H](N)C(=O)O)c1; Aha = [N-]=[N+]=NCC[C@H](N)C(=O)O; Cha = N[C@@H](CC1CCCCC1)C(=O)O; Cit = NC(=O)NCCC[C@H](N)C(=O)O; Ile(3ξ) = CCC(C)[C@H](N)C(=O)O; Thr(3ξ) = CC(O)[C@H](N)C(=O)O; Carboxymethyl = O=C(O)C*; Orn = NCCC[C@H](N)C(=O)O; Dab = NCC[C@H](N)C(=O)O; Dap = NC[C@H](N)C(=O)O; Propargyl = C#CC*
Target: T1, human PD-1 / PD-L1-Ig binding on Jurkat cell line over-expressing human PD-1 (Jurkat-PD-1) (Homo sapiens, UniProt Q15116)
T1 construct: expressed in transfected cells; host or cells: Jurkat
Assay: Jurkat-PD-1 Cell Binding High-Content Screening Assay (CBA)
Format: cell-based
Settings: Jurkat HPD1_PDL1 IC50, Jurkat-PD-1 cells, PE-labeled PD-L1-Ig 20 nM final
Procedure, shortened: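 Jurkat cells over-expressing human PD-1, in DMEM/10% FCS, pre-incubated with compound 2 h at 37° C. PE-labeled human PD-L1-Ig (20 nM final) added for 1 h; cells fixed in paraformaldehyde with Hoechst 33342 nuclear stain, washed, and bound fluorescence quantified by high-content imaging.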

T1 sequence (Q15116 25-288): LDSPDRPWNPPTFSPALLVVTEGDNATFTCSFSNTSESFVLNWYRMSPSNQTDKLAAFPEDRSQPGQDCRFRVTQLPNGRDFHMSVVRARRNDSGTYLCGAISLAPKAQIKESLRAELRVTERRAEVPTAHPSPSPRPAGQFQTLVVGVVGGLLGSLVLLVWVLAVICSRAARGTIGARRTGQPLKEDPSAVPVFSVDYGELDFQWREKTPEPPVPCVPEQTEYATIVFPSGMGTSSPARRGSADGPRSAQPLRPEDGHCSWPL

| Structure (SMILES) | IC50 |
| --- | --- |
| CC(C)C[C@H]1NC(=O)[C@H](CCCN)NC(=O)[C@H](C(C)C)NC(=O)[C@H](Cc2ccc(-c3ccccc3)cc2)NC(=O)[C@H](C(C)C)NC(=O)[C@H](Cc2c[nH]c3ccccc23)NC(=O)[C@H](CC(=O)O)NC(=O)[C@H](Cc2ccc(OCC(=O)O)cc2)NC(=O)[C@H](Cc2ccc(OCc3ccccc3)cc2)NC(=O)CSC[C@@H](C(=O)N[C@@H](C)C(N)=O)NC(=O)[C@H]([C@@H](C)O)NC(=O)[C@H](C(C)C)NC(=O)[C@H](CC2CCCCC2)NC(=O)[C@H](CCN)NC1=O [Compound 1527] | 103 nM |

Same assay, conditions: Jurkat-PD-1 cells, PE-labeled PD-L1-Ig 20 nM final; read-out: Jurkat HPD1_PDL1 IC50

| Structure (SMILES) | IC50 |
| --- | --- |
| CC(C)C[C@@H]1NC(=O)[C@H](Cc2c[nH]c3ccccc23)NC(=O)[C@H](CC(=O)O)NC(=O)[C@H](Cc2ccc(O)cc2)NC(=O)[C@H](Cc2ccccc2)NC(=O)CSC[C@@H](C(=O)N[C@@H](C)C(N)=O)NC(=O)[C@H](CO)NC(=O)[C@H](C(C)C)NC(=O)[C@H](CC(C)C)NC(=O)[C@H](CC(N)=O)NC(=O)[C@@H](C)NC(=O)[C@H](CN)NC(=O)[C@H](C(C)C)NC(=O)[C@H](Cc2ccc(-c3ccccc3)cc2)NC1=O [Compound 1075] ({CH2CO}-FYDWL[Bip]V[Dap][dA]NLVSCA-NH2; thioether N-14) | 50.1 nM |
| Cc1cccc(C[C@@H]2NC(=O)[C@H](CC(=O)O)NC(=O)[C@H](Cc3ccc(OCC(=O)O)cc3)NC(=O)[C@H](Cc3ccc(OCC(=O)O)cc3)NC(=O)CSC[C@@H](C(=O)N[C@@H](C)C(N)=O)NC(=O)[C@H]([C@@H](C)O)NC(=O)[C@H](C(C)C)NC(=O)[C@H](CC3CCCCC3)NC(=O)[C@H](CCN)NC(=O)[C@@H](CC(C)C)NC(=O)[C@H](CCCN)NC(=O)[C@H](C(C)C)NC(=O)[C@H](Cc3ccc(-c4ccccc4)cc3)NC(=O)[C@H](C(C)C)NC2=O)c1 [Compound 1572] | 17.2 nM |
| Cc1cccc(C[C@@H]2NC(=O)[C@H](CC(=O)O)NC(=O)[C@H](Cc3ccc(OCC(=O)O)cc3)NC(=O)[C@H](CCN)NC(=O)CSC[C@@H](C(=O)N[C@@H](CCCN)C(N)=O)NC(=O)[C@H](C(C)O)NC(=O)[C@H](C(C)C)NC(=O)[C@H](CC3CCCCC3)NC(=O)[C@H](CCN)NC(=O)[C@@H](CC(C)C)NC(=O)[C@H](CCCN)NC(=O)[C@H](CCCNC(N)=O)NC(=O)[C@H](Cc3ccc(-c4ccccc4)cc3)NC(=O)[C@H](C(C)C)NC2=O)c1 (stereo partly drawn) [Compound 2639] ({CH2CO}-[Dab]Y(Carboxymethyl)D[Phe(3-Me)]V[Bip][Cit][Orn][dL][Dab][Cha]V[Thr(3ξ)]C[Orn]-NH2; thioether N-14) | 13.6 nM |
| CC(C)C[C@H]1NC(=O)[C@H](CCCN)NC(=O)[C@H](CCC(=O)O)NC(=O)[C@H](Cc2ccc(-c3ccccc3)cc2)NC(=O)[C@H](C(C)C)NC(=O)[C@H](Cc2cccc(C(F)(F)F)c2)NC(=O)[C@H](CC(=O)O)NC(=O)[C@H](Cc2ccc(O)cc2)NC(=O)[C@H](CC(N)=O)NC(=O)CSC[C@@H](C(=O)N[C@@H](C)C(N)=O)NC(=O)[C@H]([C@@H](C)O)NC(=O)[C@H](C(C)C)NC(=O)[C@H](CC2CCCCC2)NC(=O)[C@H](CCN)NC1=O [Compound 1457] ({CH2CO}-NYD[Phe(3-CF3)]V[Bip]E[Orn][dL][Dab][Cha]VTCA-NH2; thioether N-14) | 19.8 nM |
| C#CCOc1ccc(C[C@@H]2NC(=O)[C@H](CCCNC(=N)N)NC(=O)CSC[C@@H](C(=O)N[C@@H](CCN)C(N)=O)NC(=O)[C@H](CCC(=O)O)NC(=O)[C@H](C(C)C)NC(=O)[C@H](CC3CCCCC3)NC(=O)[C@H](CCN)NC(=O)[C@@H](CC(C)C)NC(=O)[C@H](CCCN)NC(=O)[C@H](Cc3ccc(OCC(=O)O)cc3)NC(=O)[C@H](Cc3ccc(-c4ccccc4)cc3)NC(=O)[C@H](Cc3ccc(OCC(=O)O)cc3)NC(=O)[C@H](Cc3cccc(C)c3)NC(=O)[C@H](CC(=O)O)NC2=O)cc1 [Compound 1815] ({CH2CO}-RY(Propargyl)D[Phe(3-Me)]Y(Carboxymethyl)[Bip]Y(Carboxymethyl)[Orn][dL][Dab][Cha]VEC[Dab]-NH2; thioether N-14) | 22.2 nM |
| Cc1cccc(C[C@@H]2NC(=O)[C@H](CC(=O)O)NC(=O)[C@H](Cc3ccc(OCC(=O)O)cc3)NC(=O)[C@H](CN)NC(=O)CSC[C@@H](C(=O)N[C@@H](C)C(N)=O)NC(=O)[C@H](CCCCN)NC(=O)[C@H](C(C)C)NC(=O)[C@H](CC3CCCCC3)NC(=O)[C@H](CCN)NC(=O)[C@@H](CC(C)C)NC(=O)[C@H](CCCN)NC(=O)[C@H](C(C)C)NC(=O)[C@H](Cc3ccc(-c4ccccc4)cc3)NC(=O)[C@H](C(C)C)NC2=O)c1 [Compound 1755] ({CH2CO}-[Dap]Y(Carboxymethyl)D[Phe(3-Me)]V[Bip]V[Orn][dL][Dab][Cha]VKCA-NH2; thioether N-14) | 8.4 nM |
| Cc1cccc(C[C@@H]2NC(=O)[C@H](CC(=O)O)NC(=O)[C@H](Cc3ccc(OCC(=O)O)cc3)NC(=O)[C@H](CN)NC(=O)CSC[C@@H](C(=O)N[C@@H](C)C(=O)NCc3cnc(C)cn3)NC(=O)[C@H]([C@@H](C)O)NC(=O)[C@H](C(C)C)NC(=O)[C@H](CC3CCCCC3)NC(=O)[C@H](CCN)NC(=O)[C@@H](CC(C)C)NC(=O)[C@H](CCCN)NC(=O)[C@H](CCCNC(N)=O)NC(=O)[C@H](Cc3ccc(-c4ccccc4)cc3)NC(=O)[C@H](C(C)C)NC2=O)c1 [Compound 2006] | 14.8 nM |
| Cc1cccc(C[C@@H]2NC(=O)[C@H](CC(=O)O)NC(=O)[C@H](Cc3ccc(C(=O)O)cc3)NC(=O)[C@H](Cc3ccc(OCC(=O)O)cc3)NC(=O)CSC[C@@H](C(=O)N[C@H](Cc3ccc(O)cc3)C(=O)O)NC(=O)[C@H](CCCN)NC(=O)[C@H](C(C)C)NC(=O)[C@H](CC3CCCCC3)NC(=O)[C@H](CCN)NC(=O)[C@@H](CC(C)C)NC(=O)[C@H](CCN)NC(=O)[C@H](C(C)C)NC(=O)[C@H](Cc3ccc(-c4ccccc4)cc3)NC(=O)[C@H](C(C)C)NC2=O)c1 [Compound 2589] ({CH2CO}-Y(Carboxymethyl)[Phe(4-COOH)]D[Phe(3-Me)]V[Bip]V[Dab][dL][Dab][Cha]V[Orn]C[dY]-OH; thioether N-14) | 34.3 nM |
| CCC(C)[C@@H]1NC(=O)[C@H](Cc2ccc(-c3ccccc3)cc2)NC(=O)[C@H](C(C)O)NC(=O)[C@H](Cc2c[nH]c3ccccc23)NC(=O)[C@H](CC(=O)O)NC(=O)[C@H](Cc2ccc(OCC(=O)O)cc2)NC(=O)[C@H](C(C)O)NC(=O)CSC[C@@H](C(=O)N[C@@H](CC(N)=O)C(=O)O)NC(=O)[C@H](CO)NC(=O)[C@H](C(C)C)NC(=O)[C@H](CC(C)C)NC(=O)[C@H](CCN)NC(=O)[C@@H](CC(C)C)NC(=O)[C@H](CCCN)NC1=O (stereo partly drawn) [Compound 2572] ({CH2CO}-[Thr(3ξ)]Y(Carboxymethyl)DW[Thr(3ξ)][Bip][Ile(3ξ)][Orn][dL][Dab]LVSCN-OH; thioether N-14) | 77.4 nM |

The remaining lines, values ahead:

| IC50 | Structure (SMILES) |
| --- | --- |
| 6.6 nM | CC(C)C[C@H]1NC(=O)[C@H](CCCN)NC(=O)[C@H](C(C)C)NC(=O)[C@H](Cc2ccc(-c3ccccc3)cc2)NC(=O)[C@H](C(C)C)NC(=O)[C@H](Cc2c[nH]c3ccccc23)NC(=O)[C@H](CC(=O)O)NC(=O)[C@H](Cc2ccc(C(=O)O)cc2)NC(=O)[C@H](Cc2ccc(OCC(=O)O)cc2)NC(=O)CSC[C@@H](C(=O)N[C@@H](C)C(N)=O)NC(=O)[C@H](CCCN)NC(=O)[C@H](C(C)C)NC(=O)[C@H](CC2CCCCC2)NC(=O)[C@H](CCN)NC1=O [Compound 1742] ({CH2CO}-Y(Carboxymethyl)[Phe(4-COOH)]DWV[Bip]V[Orn][dL][Dab][Cha]V[Orn]CA-NH2; thioether N-14) |
| 10.9 nM | CC(C)C[C@H]1NC(=O)[C@H](CCCN)NC(=O)[C@H](C(C)C)NC(=O)[C@H](Cc2ccc(-c3ccccc3)cc2)NC(=O)[C@H](C(C)C)NC(=O)[C@H](Cc2c[nH]c3ccccc23)NC(=O)[C@H](CC(=O)O)NC(=O)[C@H](Cc2ccc(O)cc2)NC(=O)[C@H](CC#N)NC(=O)CSC[C@@H](C(=O)N[C@@H](C)C(N)=O)NC(=O)[C@H](C(C)O)NC(=O)[C@H](C(C)C)NC(=O)[C@H](CC2CCCCC2)NC(=O)[C@H](CCN)NC1=O (stereo partly drawn) [Compound 2536] |
| 964 nM | CC(C)C[C@H]1NC(=O)[C@H](CCCN)NC(=O)[C@H](CCCNC(N)=O)NC(=O)[C@H](Cc2ccc(-c3ccccc3)cc2)NC(=O)[C@H](C(C)C)NC(=O)[C@H](Cc2c[nH]c3ccccc23)NC(=O)[C@H](CC(=O)O)NC(=O)[C@H](CC(=O)O)NC(=O)[C@H](CN)NC(=O)CSC[C@@H](C(=O)N[C@@H](C)C(N)=O)NC(=O)[C@H]([C@@H](C)O)NC(=O)[C@H](C(C)C)NC(=O)[C@H](CC2CCCCC2)NC(=O)[C@H](CCN)NC1=O [Compound 2120] ({CH2CO}-[Dap]DDWV[Bip][Cit][Orn][dL][Dab][Cha]VTCA-NH2; thioether N-14) |
| 21.2 nM | CC(C)C[C@H]1NC(=O)[C@H](CCCN)NC(=O)[C@H](CCCNC(N)=O)NC(=O)[C@H](Cc2ccc(-c3ccccc3)cc2)NC(=O)[C@H](C(C)C)NC(=O)[C@H](Cc2c[nH]c3ccccc23)NC(=O)[C@H](CC(=O)O)NC(=O)[C@H](Cc2ccsc2)NC(=O)[C@H](CN)NC(=O)CSC[C@@H](C(=O)N[C@@H](C)C(N)=O)NC(=O)[C@H]([C@@H](C)O)NC(=O)[C@H](C(C)C)NC(=O)[C@H](CC2CCCCC2)NC(=O)[C@H](CCN)NC1=O [Compound 2100] |
| 59.3 nM | C#CCOc1ccc(C[C@@H]2NC(=O)[C@H](CN)NC(=O)CSC[C@@H](C(=O)N[C@@H](CCN=[N+]=[N-])C(N)=O)NC(=O)[C@H]([C@@H](C)O)NC(=O)[C@H](C(C)C)NC(=O)[C@H](CC3CCCCC3)NC(=O)[C@H](CCN)NC(=O)[C@@H](CC(C)C)NC(=O)[C@H](CCCN)NC(=O)[C@H](CCC(=O)O)NC(=O)[C@H](Cc3ccc(-c4ccccc4)cc3)NC(=O)[C@H](C(C)C)NC(=O)[C@H](Cc3c[nH]c4ccccc34)NC(=O)[C@H](CC(=O)O)NC2=O)cc1 [Compound 1536] ({CH2CO}-[Dap]Y(Propargyl)DWV[Bip]E[Orn][dL][Dab][Cha]VTC[Aha]-NH2; thioether N-14) |

From patent US20250163104A1, “MACROCYCLIC IMMUNOMODULATORS” (priority 2021, published 2025)
